These results are taken from patent US6498164B1, “Barbituric acid derivative and preventive and therapeutic agent for bone and cartilage containing the same” (Aventis Pharma S.A., priority 1998, dated 2002).

For the experiment, the system named is osteocytes containing osteoclasts. In words: Pit formation assay (bone resorption inhibition on ivory slices). Type of experiment: cell-based, ICR mice. To be noted: compound 1 × 10^−5 M, ivory piece, 3 days culture; for inhibition at 10 µM: Mus musculus, Osteoclast, 72 h, 0% = no compound with rPTH 1×10^−8 M, 100% = no resorption cavity, read-out: Inhibiting rate; for Number of resorption cavity (mean ± SD): rPTH 1×10^−8 M. As for the experimental part: ICR mice 11-12 days old (Charles River) were subjected to euthanasia through ether anesthesia, and disinfected by dipping in 70% ethanol immediately. Subsequently, a femur and a shank of a mouse was removed, chopped in an -MEM culture medium (Flow Labs Corp.) containing 5% FBS (Irving Scientific Corp.), 100 U/mL penicillin, and 100 µg/mL streptomycin. Supernatant obtained by pipetting was collected, washed with culture medium solution, suspended in a solution containing 5% FBS and -MEM culture medium to yield osteocytes containing osteoclasts. Supernatant of osteocyte suspending solution was taken 3 minutes after standing still to pass through meshes (Cell Strainer, 70 m, Falcon Corp.). The filtrate was adjusted to the concentration of 1 107 cells/mL to use for pit formation assay.
(2) Test by the pit formation assay
An ivory piece was cut into slices in 150 m thickness by using a precision, low speed cutter (Buehler Corp.) and punched to make a cylinderial holes in 6 mm diameter. The ivory piece was dipped in 70% ethanol, treated by sonication for 5 minutes twice, and washed with sterilized PBS three times and with culture medium twice. The ivory piece was put in pits of a 96-pit culture plate (Falcon Corp.), 100 μl of culture medium, that contains a chemical compound of the present invention adjusted to a concentration of 2×10^−5 M, was poured into each pit, and 100 μL of culture medium, that contains 1×10^7 osteocytes/mL previously prepared, into each pit (the final concentration of the compound was 1×10^−5 M), and finally cultivation was carried out in an incubator under 37° C. and 10% CO2 for 3 days. Then cells on an ivory piece were removed in 2 M sodium hydroxide solution, washed with water and methanol to stain resorption cavity with Coomassie Brilliant Blue and count numbers of absorbed cavities under a microscope. The inhibition rate of bone resorption was calculated on the basis that resorption cavity was assumed 0% in the case of no addition of the compound under the presence of rPTH (1×10^−8 M) in the solution and the case of no resorption cavity was assumed 100%. A good result was yielded in the same experiment with variation of resorption cavity numbers among experimental groups due to a difference among proportions of various cell in the solution, in which osteocytes were suspended, and also among the lot numbers of used animals.

Take `CC(C)CC(=O)C1C(=O)N(Cc2ccccc2)C(=O)N(Cc2ccccc2)C1=O` [Compound No. 1, 1,3-Dibenzyl-5-(3-methyl-1-oxobutyl)barbituric Acid]: the inhibition at 10 µM came to 99.2% and the “Number of resorption cavity (mean ± SD)” value was 1.0 ± 0.5.
The like results for `O=C(Cc1ccccc1)C1C(=O)N(Cc2ccccc2)C(=O)N(Cc2ccccc2)C1=O` [Compound No. 2, 1,3-Dibenzyl-5-(phenylacetyl)barbituric Acid] were, in that order, 99% and 2.2 ± 0.6.
Turning to `O=C(Cc1cccs1)C1C(=O)N(Cc2ccccc2)C(=O)N(Cc2ccccc2)C1=O` [Compound No. 3, 1,3-Dibenzyl-5-(2-thienylacetyl)barbituric Acid], the inhibition at 10 µM amounted to 96.7% and the “Number of resorption cavity (mean ± SD)” value came out at 7.0 ± 1.7.
The like results for `CC(C)CCN1C(=O)C(C(=O)CC(C)C)C(=O)N(CCC(C)C)C1=O` [Compound No. 4, 1,3-Bis(3-methylbutyl)-5-(3-methyl-1-oxobutyl)barbituric Acid] were, in that order, 90.6% and 21.1 ± 4.3.
